Test results as given in patent publication US9616062B2, “Cyclin dependent kinase inhibitors and methods of use” (priority 2009, dated 2017).

Assays:
[1] = system: murine memory and naive T cells; test: Homeostatic T cell proliferation in mice (BrdU incorporation, Ki67); format: in vivo, mouse; conditions: murine cells, acute inhibition
Experimental: FIG. 11A: Acute inhibition of CDK4/6 selectively suppresses memory T cell homeostatic proliferation in mice. Mice were treated with PD0332991 (150 mg/kg by oral gavage). Proliferation of T-cells were assessed using BrdU and flow cytometry.
Animals were treated with CDK4/6 inhibitor (PD0332991, open bars) or vehicle (shaded bars) for 24 hours and euthanized. Splenocytes were isolated and stained for B and T cell markers. After gating on appropriate populations, Ki67 staining was performed as an indicator of proliferation and S-phase. Error bars show +/−SEM.
Acute, pharmacologic inhibition of CDK4/6 suppresses lymphocyte proliferation with the most pronounced effect on memory T cell homeostatic proliferation and germinal center formation in mice. To determine whether inhibiting CDK4/6 affects memory cell generation and maintenance, mice were treated with selective CDK4/6 inhibitors, PD 0332991 or an unrelated selective CDK4/6 inhibitor, 2BrIC. 2BrIC was synthesized by OTAVA Chemicals (Kiev, Ukraine) and can be prepared according to methods described in Zhu et al., J. Med. Chem. 46, 2027-2030 (2003).

[2] = system: purified human peripheral B cells (CD19+); test: Human B cell proliferation after anti-IgM stimulation (BrdU incorporation); format: cell-based
Experimental: FIG. 20: CDK4/6 inhibitors suppress B cell proliferation after stimulation through BCR. B cells were purified by Automacs selection of CD19+ cells. The BrdU incorporation of purified human peripheral B cells was determined after anti-IgM stimulation with or without CDK4/6 inhibitor treatment. The fraction of proliferating B cells reduced ˜10 fold after L4D inhibition. L4D=2BrIC
Similar results were seen using human lymphocytes. […] Human lymphocytes are sorted to T(CD3+) and B(CD19+) cells and treated in vitro with CDK4/6 inhibitor prior to stimulation with PMA and Inomycin (P+I)+OKT3 (Tcells) or IgM (Bcells), with proliferation assessed by BrdU uptake and Ki67y expression, and activation assessed by CD25 expression. […] In FIG. 15, the effects of CDK4/6 inhibition on specific Tcell fractions is assessed, with and without TCR, showing CDK4/6 inhibition has a greater effect on proliferation of memory cells relative to naïve cells. […] These alterations in proliferation are associated with decreased T cell activation as measured by CD25 expression.
Cohorts of wild type mice were treated with vehicle or a CDK4/6 inhibitor as in FIG. 11. […] Unstimulated mice were treated for 24 hours with PD0332991 and homeostatic B cell proliferation measured by Ki67 staining after appropriate sorting. […]

[3] = system: human peripheral blood T cells (memory and naive); test: Human peripheral blood T cell proliferation after PMA and ionomycin stimulation (BrdU, Ki-67 FACS); format: cell-based
Experimental: FIG. 13: CDK4/6 inhibitors suppress T cell proliferation upon stimulation through TCR pathway in both memory and naïve compartments. Human peripheral blood T cells were purified using Automacs by CD3 positive selection before being treated with CDK4/6 inhibitors and stimulated with PMA and Inomycin for 48 hrs. The proliferation of memory […] T cells after stimulation by PMA and Inomycin was measured by FACS staining of BrdU+ or Ki-67+ cells. The percentages of inhibition are shown, which indicates more inhibition of memory compartment than naïve compartment.
FIG. 14: CDK4/6 inhibitors suppress T cell proliferation upon stimulation through TCR pathway. […] Proliferation determined by BrdU or Ki67 incorporation. […]
FIG. 15: Changes of CD4 T cell composition after CDK4/6 inhibition. […] The memory and terminal differentiated T cell fractions as assessed by BrdU incorporation are reduced after CDK4/6 inhibition. […]
FIG. 16: Changes of CD4 T cell composition after CDK4/6 inhibition. […] The memory and terminal differentiated T cell fractions as assessed by Ki67 staining are reduced after CDK4/6 inhibition. […]
Similar results were seen using human lymphocytes. […] In FIG. 15, the effects of CDK4/6 inhibition on specific Tcell fractions is assessed, with and without TCR, showing CDK4/6 inhibition has a greater effect on proliferation of memory cells relative to naïve cells. […]

[4] = system: renal cell proliferation in female FVB wt mice; test: EdU incorporation into whole kidney of cisplatin-treated mice (flow cytometry); format: in vivo, mouse; conditions: kidney single cell suspension, 72 h; cisplatin 15 mg/kg IP; PD0332991 100 mg/kg per day in chow or no drug
Experimental: FIG. 6: CDK4/6 inhibition blocks EdU incorporation into whole kidney in mice treated with cisplatin. […] EdU ([…]) was given IP every 24 hours prior to sacrifice. Kidneys were collected and single cell isolates were prepared and stained for EdU incorporation. Proliferation was assessed by flow cytometry. Data represents % of EdU staining in untreated, cisplatin-treated and cisplatin/PD0332991 treated cells.
[…] Proliferation was assessed by using BrdU (1 mg IP injection) every 6 hours for 24 hours prior to sacrifice or […] (0.1 mg IP) every 24 hours for 3 days prior to sacrifice.
Kidneys were harvested from mice and single cells were isolated using a gentleMACS™ tissue dissociator (Miltinyi Biotec, Bergisch Gladbach, Germany). Briefly, kidneys were cut into small pieces and placed in 10 ml collagenase (1 mg/ml) in a gentleMACS™ C tube (Miltinyi Biotec, Bergisch Gladbach, Germany). Tissue was dissociated following the manufacturer's recommendations (Miltinyi Biotec, Bergisch Gladbach, Germany). Cells were then incubated for 5 minutes in ACK buffer to lyse red blood cells, filtered and pelleted. Cells were resuspended in 4% paraformaldehyde and stored overnight at 4° C. For quantification of EdU incorporation, the cells were fixed, permeabilized, and stained with an APC EdU Flow Kit according to the manufacturer's instruction (Invitrogen Corporation, Carlsbad, Calif., United States of America). Flow cytometric analysis was performed using a CyAn ADP (Dako, Glostrup, Denmark). For each sample, a minimum of 500,000 cells was analyzed and the data were analyzed using FlowJo software (Tree Star, Inc., Ashland, Oreg., United States of America).
The kidney is relatively quiescent until challenged by a renal insult. Therefore, to determine whether renal cell proliferation was dependent on CDK4/6 activity in vivo, renal cell proliferation was stimulated by treating female FVB wt mice with cisplatin, a known nephrotoxic chemotherapeutic agent. At time 0 hr, mice were started on chow delivering PD0332991 100 mg/kg per day or standard chow with no drug. […]

Row | SMILES | homeostatic proliferation of memory vs naive T cells (BrdU incorporation, Ki67 expression) [1] | reduction of the fraction of proliferating B cells (BrdU) [2] [fold] | proliferation of memory vs naive T cells (BrdU incorporation, Ki67 expression) [3] | cells labeled with EdU [4]
1 | O=C1NC(=O)c2c1c1c3ccccc3[nH]c1c1[nH]c3cc(Br)ccc3c21 [2BrIC, 2-bromo-12,13-dihydro-5H-indolo[2,3-a]pyrrolo[3,4]-carbazole-5,6-dione] | more significant decrease in homeostatic proliferation of memory T cells than naive T cells | ~10 | more significant decrease in homeostatic proliferation of memory T cells than naive T cells | 
2 | N.N.[Cl][Pt][Cl] [cisplatin] |  |  |  | approximately 17%
